# Measurements from patent US7932270B2 (Cytokinetics, Inc., priority 2006, dated 2011).
# Molecular target: T1, chicken gizzard smooth muscle myosin subfragment-1 chemically crosslinked to cardiac or skeletal actin (Gallus gallus, UniProt P10587)
# T1 construct: chicken gizzard smooth muscle myosin subfragment-1; from tissue; host or cells: chicken gizzard
# Test: Smooth muscle myosin ATPase dose response assay (pyruvate kinase/horseradish peroxidase/pyruvate oxidase-coupled, amplex red fluorescence)
# Type: biochemical
# Conditions: read-out: IC50 Arithmetic Mean
# Procedure, shortened: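 Chicken gizzard myosin S1 crosslinked to cardiac or skeletal actin, titrated to a set hydrolysis rate; 0.15 mM ATP, 12 mM PIPES pH 7.00, 100 mM KCl, 2 mM MgCl2. Pyruvate kinase/pyruvate oxidase/HRP coupling with amplex red fluorescence; IC50 from 4-parameter fit.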
# T1 sequence (P02607 2-151): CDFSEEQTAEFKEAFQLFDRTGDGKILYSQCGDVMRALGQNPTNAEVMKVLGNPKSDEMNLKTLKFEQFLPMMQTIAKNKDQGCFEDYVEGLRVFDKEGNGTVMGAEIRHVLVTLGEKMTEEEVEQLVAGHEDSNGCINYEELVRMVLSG
# T1 sequence (P10587 84-789): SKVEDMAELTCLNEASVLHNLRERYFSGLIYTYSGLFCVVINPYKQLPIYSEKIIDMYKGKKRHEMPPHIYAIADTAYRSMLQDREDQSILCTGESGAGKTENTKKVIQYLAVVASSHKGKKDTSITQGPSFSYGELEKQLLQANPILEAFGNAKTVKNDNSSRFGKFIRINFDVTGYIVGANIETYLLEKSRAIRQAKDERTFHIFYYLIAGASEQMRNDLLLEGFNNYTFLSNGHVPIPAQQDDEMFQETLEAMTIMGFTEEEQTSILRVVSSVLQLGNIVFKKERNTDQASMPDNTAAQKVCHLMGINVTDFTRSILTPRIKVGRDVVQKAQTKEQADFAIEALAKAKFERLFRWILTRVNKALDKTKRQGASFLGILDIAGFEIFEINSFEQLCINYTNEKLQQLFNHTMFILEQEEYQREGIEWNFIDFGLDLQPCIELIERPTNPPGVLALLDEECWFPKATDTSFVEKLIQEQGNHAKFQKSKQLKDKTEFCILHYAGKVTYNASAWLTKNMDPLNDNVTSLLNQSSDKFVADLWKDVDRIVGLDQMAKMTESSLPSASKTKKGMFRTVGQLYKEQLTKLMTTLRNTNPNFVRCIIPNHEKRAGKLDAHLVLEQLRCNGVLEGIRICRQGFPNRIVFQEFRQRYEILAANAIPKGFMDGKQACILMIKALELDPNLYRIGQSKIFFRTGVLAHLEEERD
row,SMILES,IC50 [nM]
1,N#Cc1ccccc1-c1ccc(C(=O)NCC2CCCCCN2C(=O)CCN)c(NCCc2cccc(F)c2)n1 (stereo not drawn) [N-{[1-(3-aminopropanoyl)azaperhydroepin-2-yl]methyl}(6-(2-cyanophenyl)-2-{[2-(3-fluorophenyl)ethyl]amino}(3-pyridyl))carboxamide],256
2,N#Cc1ccccc1-c1ccc(C(=O)NCC2CCN(C(=O)CCN)C2)c(NCCc2cccc(F)c2)n1 (stereo not drawn) [N-{[1-(3-aminopropanoyl)pyrrolidin-3-yl]methyl}(6-(2-cyanophenyl)-2-{[2-(3-fluorophenyl)ethyl]amino}(3-pyridyl))carboxamide],270
3,Cn1cc(-c2ccc(C(=O)NCC3CCN(CCCN)C3=O)c(NCCc3cccc(F)c3)n2)cn1 (stereo not drawn) [N-{[1-(3-aminopropyl)-2-oxopyrrolidin-3-yl]methyl}(2-{[2-(3-fluorophenyl)ethyl]amino}-6-(1-methylpyrazol-4-yl)(3-pyridyl))carboxamide],5500
4,NCCCN1CCC(CNC(=O)c2ccc(-c3cn[nH]c3)nc2NCCc2cccc(F)c2)C1=O (stereo not drawn) [N-{[1-(3-aminopropyl)-2-oxopyrrolidin-3-yl]methyl}(2-{[2-(3-fluorophenyl)ethyl]amino}-6-pyrazol-4-yl(3-pyridyl))carboxamide],3130
5,N#Cc1ccccc1-c1ccc(C(=O)NCC2CCN(CCCN)C2=O)c(NCCc2cccc(F)c2)n1 (stereo not drawn) [N-{[1-(3-aminopropyl)-2-oxopyrrolidin-3-yl]methyl}(6-(2-cyanophenyl)-2-{[2-(3-fluorophenyl)ethyl]amino}(3-pyridyl))carboxamide],382
6,N#Cc1ccccc1-c1ccc(C(=O)NCC2CCCC(=O)N2CCCN)c(NCCc2cccc(F)c2)n1 (stereo not drawn) [N-{[1-(3-aminopropyl)-6-oxo(2-piperidyl)]methyl}(6-(2-cyanophenyl)-2-{[2-(3-fluorophenyl)ethyl]amino}(3-pyridyl))carboxamide],25
7,N#Cc1ccccc1-c1ccc(C(=O)NCC2CCCCC(=O)N2CCCN)c(NCCc2cccc(F)c2)n1 (stereo not drawn) [N-{[1-(3-aminopropyl)-7-oxoazaperhydroepin-2-yl]methyl}(6-(2-cyanophenyl)-2-{[2-(3-fluorophenyl)ethyl]amino}(3-pyridyl))carboxamide],273
8,Cn1cc(-c2ccc(C(=O)NCc3ccn(CCCN)n3)c(NCCc3cccc(F)c3)n2)cn1 [N-{[1-(3-aminopropyl)pyrazol-3-yl]methyl}(2-{[2-(3-fluorophenyl)ethyl]amino}-6-(1-methylpyrazol-4-yl)(3-pyridyl))carboxamide],2690
9,NCCCn1ccc(CNC(=O)c2ccc(-c3cc[nH]n3)nc2NCCc2cccc(F)c2)n1 [N-{[1-(3-aminopropyl)pyrazol-3-yl]methyl}(2-{[2-(3-fluorophenyl)ethyl]amino}-6-pyrazol-3-yl(3-pyridyl))carboxamide],3760
10,NCCCn1ccc(CNC(=O)c2ccc(-c3cn[nH]c3)nc2NCCc2cccc(F)c2)n1 [N-{[1-(3-aminopropyl)pyrazol-3-yl]methyl}(2-{[2-(3-fluorophenyl)ethyl]amino}-6-pyrazol-4-yl(3-pyridyl))carboxamide],1410
11,N#Cc1ccccc1-c1ccc(C(=O)NCc2ccn(CCCN)n2)c(NCCc2cccc(F)c2)n1 [N-{[1-(3-aminopropyl)pyrazol-3-yl]methyl}(6-(2-cyanophenyl)-2-{[2-(3-fluorophenyl)ethyl]amino}(3-pyridyl))carboxamide],65
12,Cn1cc(-c2ccc(C(=O)NCc3ccnn3CCCN)c(NCCc3cccc(F)c3)n2)cn1 [N-{[1-(3-aminopropyl)pyrazol-5-yl]methyl}(2-{[2-(3-fluorophenyl)ethyl]amino}-6-(1-methylpyrazol-4-yl)(3-pyridyl))carboxamide],228
13,NCCCn1nccc1CNC(=O)c1ccc(-c2cc[nH]n2)nc1NCCc1cccc(F)c1 [N-{[1-(3-aminopropyl)pyrazol-5-yl]methyl}(2-{[2-(3-fluorophenyl)ethyl]amino}-6-pyrazol-3-yl(3-pyridyl))carboxamide],462
14,NCCCn1nccc1CNC(=O)c1ccc(-c2cn[nH]c2)nc1NCCc1cccc(F)c1 [N-{[1-(3-aminopropyl)pyrazol-5-yl]methyl}(2-{[2-(3-fluorophenyl)ethyl]amino}-6-pyrazol-4-yl(3-pyridyl))carboxamide],95
15,N#Cc1ccccc1-c1ccc(C(=O)NCC2CCN(CCCN)C2)c(NCCc2cccc(F)c2)n1 (stereo not drawn) [N-{[1-(3-aminopropyl)pyrrolidin-3-yl]methyl}(6-(2-cyanophenyl)-2-{[2-(3-fluorophenyl)ethyl]amino}(3-pyridyl))carboxamide],4790
16,N#Cc1ccccc1-c1ccc(C(=O)NCC2CCN(C(=O)CCCN)CC2)c(NCCc2cccc(F)c2)n1 [N-{[1-(4-aminobutanoyl)(4-piperidyl)]methyl}(6-(2-cyanophenyl)-2-{[2-(3-fluorophenyl)ethyl]amino}(3-pyridyl))carboxamide],6010
17,N#Cc1ccccc1-c1ccc(C(=O)NCC2CCCCCN2C(=O)CCCN)c(NCCc2cccc(F)c2)n1 (stereo not drawn) [N-{[1-(4-aminobutanoyl)azaperhydroepin-2-yl]methyl}(6-(2-cyanophenyl)-2-{[2-(3-fluorophenyl)ethyl]amino}(3-pyridyl))carboxamide],383

row,SMILES,IC50 [nM]
1,N#Cc1ccccc1-c1ccc(C(=O)NCC2CCN(C(=O)CCCN)C2)c(NCCc2cccc(F)c2)n1 (stereo not drawn) [N-{[1-(4-aminobutanoyl)pyrrolidin-3-yl]methyl}(6-(2-cyanophenyl)-2-{[2-(3-fluorophenyl)ethyl]amino}(3-pyridyl))carboxamide],433
2,CS(=O)(=O)N1CCCC(CNC(=O)c2ccc(-c3ccccc3)nc2NCCc2ccccn2)C1 (stereo not drawn) [N-{[1-(methylsulfonyl)(3-piperidyl)]methyl}{6-phenyl-2-[(2-(2-pyridyl)ethyl)amino](3-pyridyl)}carboxamide],20300
3,CC(=O)NCC1CCCCN1C(=O)c1ccc(-c2ccccc2)nc1NCCc1ccccn1 (stereo not drawn) [N-{[1-({6-phenyl-2-[(2-(2-pyridyl)ethyl)amino]-3-pyridyl}carbonyl)-2-piperidyl]methyl}acetamide],21200
4,N#Cc1ccccc1-c1ccc(C(=O)NCc2cccnc2CCN)c(NCCc2cccc(F)c2)n1 [N-{[2-(2-aminoethyl)(3-pyridyl)]methyl}(6-(2-cyanophenyl)-2-{[2-(3-fluorophenyl)ethyl]amino}(3-pyridyl))carboxamide],6
5,Cc1cc(C(=O)NCc2cccnc2CN)c(NCCc2cccc(F)c2)nc1-c1cnn(C)c1 [N-{[2-(aminomethyl)(3-pyridyl)]methyl}(2-{[2-(3-fluorophenyl)ethyl]amino}-5-methyl-6-(1-methylpyrazol-4-yl)(3-pyridyl))carboxamide],129
6,Cn1ccc(-c2ccc(C(=O)NCc3cccnc3CN)c(NCCc3cccc(F)c3)n2)n1 [N-{[2-(aminomethyl)(3-pyridyl)]methyl}(2-{[2-(3-fluorophenyl)ethyl]amino}-6-(1-methylpyrazol-3-yl)(3-pyridyl))carboxamide],32
7,NCc1ncccc1CNC(=O)c1ccc(-c2cnn(CCO)c2)nc1NCCc1cccc(F)c1 [N-{[2-(aminomethyl)(3-pyridyl)]methyl}(2-{[2-(3-fluorophenyl)ethyl]amino}-6-[1-(2-hydroxyethyl)pyrazol-4-yl](3-pyridyl))carboxamide],707
8,NCc1ncccc1CNC(=O)c1ccc(-c2ccccc2)nc1NCCc1cccc(F)c1 [N-{[2-(aminomethyl)(3-pyridyl)]methyl}(2-{[2-(3-fluorophenyl)ethyl]amino}-6-phenyl(3-pyridyl))carboxamide],8
9,NCc1ncccc1CNC(=O)c1ccc(-c2cc[nH]n2)nc1NCCc1cccc(F)c1 [N-{[2-(aminomethyl)(3-pyridyl)]methyl}(2-{[2-(3-fluorophenyl)ethyl]amino}-6-pyrazol-3-yl(3-pyridyl))carboxamide],43
10,NCc1ncccc1CNC(=O)c1ccc(-c2cn[nH]c2)nc1NCCc1cccc(F)c1 [N-{[2-(aminomethyl)(3-pyridyl)]methyl}(2-{[2-(3-fluorophenyl)ethyl]amino}-6-pyrazol-4-yl(3-pyridyl))carboxamide],24
11,Cn1cc(-c2nc(NCCc3cccc(F)c3)c(C(=O)NCc3cccnc3CN)cc2Cl)cn1 [N-{[2-(aminomethyl)(3-pyridyl)]methyl}(5-chloro-2-{[2-(3-fluorophenyl)ethyl]amino}-6-(1-methylpyrazol-4-yl)(3-pyridyl))carboxamide],30
12,Cn1cc(-c2nc(NCCc3cccc(F)c3)c(C(=O)NCc3cccnc3CN)cc2C#N)cn1 [N-{[2-(aminomethyl)(3-pyridyl)]methyl}(5-cyano-2-{[2-(3-fluorophenyl)ethyl]amino}-6-(1-methylpyrazol-4-yl)(3-pyridyl))carboxamide],50
13,N#Cc1cc(C(=O)NCc2cccnc2CN)c(NCCc2cccc(F)c2)nc1-c1cn[nH]c1 [N-{[2-(aminomethyl)(3-pyridyl)]methyl}(5-cyano-2-{[2-(3-fluorophenyl)ethyl]amino}-6-pyrazol-4-yl(3-pyridyl))carboxamide],58
14,Cn1cc(-c2nc(NCCc3cccc(F)c3)c(C(=O)NCc3cccnc3CN)cc2F)cn1 [N-{[2-(aminomethyl)(3-pyridyl)]methyl}(5-fluoro-2-{[2-(3-fluorophenyl)ethyl]amino}-6-(1-methylpyrazol-4-yl)(3-pyridyl))carboxamide],12
15,NCc1ncccc1CNC(=O)c1cc(F)c(-c2ccccn2)nc1NCCc1cccc(F)c1 [N-{[2-(aminomethyl)(3-pyridyl)]methyl}(5-fluoro-2-{[2-(3-fluorophenyl)ethyl]amino}-6-(2-pyridyl)(3-pyridyl))carboxamide],66
16,NCc1ncccc1CNC(=O)c1cc(F)c(-c2cc[nH]n2)nc1NCCc1cccc(F)c1 [N-{[2-(aminomethyl)(3-pyridyl)]methyl}(5-fluoro-2-{[2-(3-fluorophenyl)ethyl]amino}-6-pyrazol-3-yl(3-pyridyl))carboxamide],14
